Here are results for 13 molecules from patent publication US20070213354A1, “Compositions and Methods for the Treatment of Multiple Sclerosis” (AmpliMed Corporation, priority 2006, published 2007).

For one experiment, the system named is L1210 sensitive. Particulars: murine leukemia L1210 sensitive to standard cytotoxic agents; MTT, continuous exposure; cited from earlier work.
Experiment [1] relates to acute monophasic EAE. Description: Acute monophasic EAE, drug administration beginning on day 11 post immunization. The experiment is classed as in vivo, C57/BL6 mice. Particulars: for Mean Clinical Score / Day of Onset / Incidence: 32 day observation; for Mean Clinical Score: mice that had evidence of disease; for Max. Clinical Score: scale 0 to 5. From the text: (§1) An acute monophasic form of EAE, induced by the administration of MOG, mimics the progressive clinical patterns of MS seen in human patients and can provide an opportunity to investigate a therapy's ability to prevent progression to symptomatic disease, to prevent or reduce the disability that would otherwise be caused by disease progression, or to treat one or more clinical symptoms of MS. The induction of the acute monophasic form of EAE in C57/BL6 mice can be achieved as described in Gaupp et al., Am J Pathol. 162(1): 139-150 (2003). Similarly, a relapsing-remitting form of EAE, induced by the administration of PLP, mimics the more common relapsing-remitting form of MS seen in humans and can provide an opportunity to investigate potential therapies to reduce the frequency, severity, or duration of a disease relapse, to otherwise prevent disability caused by disease progression, or to relieve one or more clinical symptoms of MS in human patients. The induction of the relapsing-remitting form of EAE in SJL/J mice can be achieved as described in Fridkis-Hareli et al., J Clin Invest. 109(12): 1635-1643 (2002).
(§2) Acute monophasic EAE was induced in C57/BL6 mice by subcutaneous flank and tail base injections of 200 μg of MOG in complete Freund's adjuvent containing 500 μg of heat-inactivated mycobacterium tuberculosis on day 0, supplemented by intravenous injections of 200 ng of pertussis toxin on day 2.
With reference now to FIG. 4, five groups of mice (each group containing 5 or 6 individuals), immunized for acute monophasic EAE as described hereinbefore, were treated with either ethonafide (AMP) or mitoxantrone at a dose of 0.5 mg/kg or 1.0 mg/kg beginning on day 11 following immunization, for seven days, or were left untreated to be used as a control. Each drug was administered intraperitoneally in phosphate buffered saline (untreated mice received i.p. administrations of the PBS vehicle). The mice were observed daily for clinical signs of disease and were scored as indicated hereinbefore on a clinical scale from 0 to 5. The incidence of disease in the immunized mice, the day of disease onset, the maximum clinical score, and the mean clinical score over a 32 day observation period were determined, and the results are shown in Table 3.

The subject of experiment [2] is acute monophasic EAE. The experiment can be described thus: Acute monophasic EAE, drug administration beginning with immunization. The experiment is classed as in vivo, C57/BL6 mice. As to conditions: for Day of Onset / Incidence / Mean Clinical Score: 30 day observation; for Max. Clinical Score: scale 0 to 5.
Excerpt: as §1, §2
With reference first to FIGS. 1-3, beginning on the day of immunization for acute monophasic EAE, nine groups of mice (each group containing 5 or 6 individuals) were treated with either ethonafide (AMP; a compound of Formula (II) wherein the dibenzisoquinoline ring structure is substituted at position 6 with —OCH2CH3) or mitoxantrone at a dose of 0.125 mg/kg, 0.25 mg/kg, or 0.5 mg/kg daily for seven days, or were left untreated to be used as a control at each respective dose level. Each drug was administered intraperitoneally in phosphate buffered saline (untreated mice received i.p. administrations of the PBS vehicle). The mice were observed daily for clinical signs of disease, and were scored (by multiple investigators) on an arbitrary scale from 0 to 5 in increments of 0.5 according to the following parameters: 0—no clinical signs of disease; 1—flaccid tail; 2—hind limb weakness or abnormal gait; 3—complete hind paralysis; 4—complete hind paralysis with forelimb weakness or paralysis; and 5-moribund or deceased. The incidence of disease in the immunized mice, the day of disease onset, the maximum clinical score, and the mean clinical score over a 30 day observation period were determined, and the results are shown in Table 2.

The test system of another experiment is L1210 resistant. As to conditions: murine leukemia L1210 resistant, P-glycoprotein producing; MTT, continuous exposure; cited from earlier work.
The next experiment deals with neonatal rat myocytes. As to conditions: 1 hour drug concentration that reduces ATP/protein ratio to 50% of untreated control myocytes; read-out: IC50 Cardiotox; cited from earlier work.
Setting [3] is: 0.5 mg/kg i.p. for seven days beginning on day 11.
Setting [4] is: 0.5 mg/kg i.p. for seven days beginning on day 11 following immunization.
Setting [5] is: 1.0 mg/kg i.p. for seven days beginning on day 11.
The mark [6] stands for this setting: 1.0 mg/kg i.p. for seven days beginning on day 11 following immunization.
Where [7] appears, read: 0.125 mg/kg i.p. daily for seven days from day of immunization.
[8] abbreviates: 0.125 mg/kg i.p. daily for seven days from day of immunization, mice that had evidence of disease.
[9] abbreviates: 0.25 mg/kg i.p. daily for seven days from day of immunization.
[10] abbreviates: 0.25 mg/kg i.p. daily for seven days from day of immunization, mice that had evidence of disease.
Where [11] appears, read: 0.5 mg/kg i.p. daily for seven days from day of immunization.

For orientation: IC50 means the midpoint of a concentration-inhibition curve. For the molecule `CCOc1ccc2c3c(c4ccccc4cc13)C(=O)N(CCN(C)C)C2=O` [*6-OC2H5], the results for the IC50 in the experiment with L1210 sensitive, with L1210 resistant and with neonatal rat myocytes were 8 nM, 7 nM and 1.78 µM, respectively. The “Mean Clinical Score” value with acute monophasic EAE [1] (setting [3]) amounted to 1.86 ± 0.35; with acute monophasic EAE [1] (setting [5]), 1.17 ± 0.24; with acute monophasic EAE [2] (setting [8]), 1.98 ± 0.48; with acute monophasic EAE [2] (setting [10]), 0.88 ± 0.38; in the experiment on acute monophasic EAE [2] (setting [11]) it was 0. In addition, the “Day of Onset” value with acute monophasic EAE [1] (setting [4]) amounted to 11.8 ± 0.72; in the experiment on acute monophasic EAE [1] (setting [6]) it was 12.3 ± 0.55; in the experiment with acute monophasic EAE [2] (setting [7]), 11.5 ± 0.88; with acute monophasic EAE [2] (setting [9]), 17.8 ± 3.4. Also, the Incidence turned out to be 100% in the experiment with acute monophasic EAE [1] (setting [4]); 60% in the experiment with acute monophasic EAE [1] (setting [6]); 100% in the experiment with acute monophasic EAE [2] (setting [7]); 100% with acute monophasic EAE [2] (setting [9]); 0% with acute monophasic EAE [2] (setting [11]). Moreover, the “Max. Clinical Score” value in the experiment on acute monophasic EAE [1] (setting [4]) amounted to 3.9 ± 0.26; in the experiment on acute monophasic EAE [1] (setting [6]), 3.7 ± 0.22; in the experiment on acute monophasic EAE [2] (setting [7]), 3.5 ± 0.22; with acute monophasic EAE [2] (setting [9]), 1.8 ± 1.16; with acute monophasic EAE [2] (setting [11]), 0. In addition, the “effect in the treatment of clinical symptoms induced in the EAE mouse model” value with acute monophasic EAE [1] (0.5 and 1.0 mg/kg beginning on day 11, FIG. 4, Table 3) was “dose dependent effect”. Also, the “effect in delaying or preventing the onset of clinically symptomatic progressive disease and the disability caused thereby” value in the experiment on acute monophasic EAE [2] (0.125, 0.25, 0.5 mg/kg from day of immunization, FIGS. 1-3, Table 2) was “dose dependent effect”.

On to `O=C1c2c(O)ccc(O)c2C(=O)c2c(NCCNCCO)ccc(NCCNCCO)c21` [Mitoxantrone, reference compound], for which the IC50 with L1210 sensitive is 10 nM; in the experiment on L1210 resistant, 39 nM; in the experiment on neonatal rat myocytes it was 7.74 µM. Also, the “Mean Clinical Score” value was 0.59 ± 1.67 in the experiment on acute monophasic EAE [1] (setting [3]); 0.51 ± 0.21 in the experiment on acute monophasic EAE [1] (setting [5]); 1.63 ± 0.59 in the experiment with acute monophasic EAE [2] (setting [8]); 0.21 ± 0.07 with acute monophasic EAE [2] (setting [10]); 0 in the experiment on acute monophasic EAE [2] (setting [11]). For the same molecule, the “Day of Onset” value in the experiment with acute monophasic EAE [1] (setting [4]) is recorded as 12.2 ± 0.68; in the experiment with acute monophasic EAE [1] (setting [6]), 13.3 ± 0.55; in the experiment on acute monophasic EAE [2] (setting [7]) it was 12.5 ± 0.67. Also, the Incidence in the experiment with acute monophasic EAE [1] (setting [4]) stood at 100%; with acute monophasic EAE [1] (setting [6]), 60%; with acute monophasic EAE [2] (setting [7]), 100%; with acute monophasic EAE [2] (setting [9]), 40%; in the experiment with acute monophasic EAE [2] (setting [11]) it was 0%. Moreover, the “Max. Clinical Score” value in the experiment with acute monophasic EAE [1] (setting [4]) was determined as 2.4 ± 0.36; with acute monophasic EAE [1] (setting [6]), 2.8 ± 0.36; with acute monophasic EAE [2] (setting [7]), 3.1 ± 0.33; with acute monophasic EAE [2] (setting [11]), 0.

For the molecule `CN(C)CCN1C(=O)c2ccc(N)c3cc4ccccc4c(c23)C1=O` [*6-NH2], the 50% inhibitory concentration (IC50) was 5 nM in the experiment with L1210 sensitive, 27 nM with L1210 resistant and 1.49 µM with neonatal rat myocytes.

As to `CN(C)CCN1C(=O)c2cccc3c(N)c4ccccc4c(c23)C1=O` [*7-NH2], the IC50 in the experiment on L1210 sensitive was 5 nM; in the experiment on L1210 resistant, 7 nM; in the experiment on neonatal rat myocytes, 1.95 µM.

Turning to `CN1CCCC1CCN1C(=O)c2cccc3cc4ccccc4c(c23)C1=O` (centres unmarked) [2-(CH2)2-(1-methyl-2-pyrrolidinyl)], the IC50 in the experiment with L1210 sensitive was 51 nM; with L1210 resistant, 56 nM; in the experiment on neonatal rat myocytes, 7.08 µM.

As for `CC(=O)Nc1ccc2cc3cccc4c3c(c2c1)C(=O)N(CCN(C)C)C4=O` [*10-NHCOCH3], the concentration for half-maximal inhibition (IC50) with L1210 sensitive is 49 nM; in the experiment with L1210 resistant, 219 nM; in the experiment with neonatal rat myocytes, 7.79 µM.

For `CN(C)CCNc1ccc2c3c(c4ccccc4cc13)C(=O)N(CCN(C)C)C2=O` [*6-NH(CH2)2N(CH3)2], the figures for the half-inhibitory concentration (IC50) with L1210 sensitive, with L1210 resistant and with neonatal rat myocytes were 0.04 nM, 0.04 nM and 4.19 µM, respectively.

On to `CN(C)CCN1C(=O)c2ccc(S(C)(=O)=O)c3cc4ccccc4c(c23)C1=O` [*6-SO2CH3], for which the figures for the IC50 with L1210 sensitive, in the experiment with L1210 resistant and with neonatal rat myocytes were 35 nM, 35 nM and 2.31 µM, respectively.

As to `CN(C)CCN1C(=O)c2cccc3cc4cccc(O)c4c(c23)C1=O` [*11-OH], the concentration for half-maximal inhibition (IC50) with L1210 sensitive is 189 nM; with L1210 resistant, 189 nM; in the experiment on neonatal rat myocytes, 15.4 µM.

Regarding `CC(=O)Nc1c2ccccc2c2c3c(cccc13)C(=O)N(CCN(C)C)C2=O` [*7-NHCOCH3], the results for the IC50 in the experiment with L1210 sensitive, in the experiment on L1210 resistant and in the experiment on neonatal rat myocytes were 487 nM, 487 nM and more than 23.6 µM, respectively.

`CN(C)c1ccc(N2C(=O)c3cccc4cc5ccccc5c(c34)C2=O)cc1` [2-(p-N(CH3)2)—C6H5)]: the IC50 in the experiment on L1210 sensitive was 187 nM; with L1210 resistant, 1790 nM; with neonatal rat myocytes, 37.3 µM.

Consider `CN(C)CCN1C(=O)c2cccc3cc4ccc(I)cc4c(c23)C1=O` [*10-I], for which the IC50 in the experiment on L1210 sensitive was 312 nM; in the experiment with L1210 resistant, 52 nM; in the experiment with neonatal rat myocytes, 4.79 µM.

With `CCSc1ccc2c3c(c4ccccc4cc13)C(=O)N(CCN(C)C)C2=O` [*6-SC2H5], the IC50 in the experiment with L1210 sensitive is 6 nM; with L1210 resistant, 5 nM; with neonatal rat myocytes it was 7.74 µM.
